Experimental findings from publication PMC11575720 (RSC Advances, 2024) are described below.

Broadly, the IC50 is the point on the concentration scale where inhibition reaches its midpoint.

One assay has as its target T1, L. major PTR1 (Leishmania major, UniProt Q01782).
T1 sequence (Q01782 1-288): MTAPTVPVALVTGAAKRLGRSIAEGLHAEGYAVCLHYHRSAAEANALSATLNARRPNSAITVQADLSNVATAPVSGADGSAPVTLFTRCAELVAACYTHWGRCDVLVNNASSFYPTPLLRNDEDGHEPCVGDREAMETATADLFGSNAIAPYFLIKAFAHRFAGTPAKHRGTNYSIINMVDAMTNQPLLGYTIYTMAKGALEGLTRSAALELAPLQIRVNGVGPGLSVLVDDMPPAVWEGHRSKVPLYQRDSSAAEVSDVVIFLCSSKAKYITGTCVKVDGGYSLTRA
The assay can be described thus: L. major PTR1 enzyme inhibition assay. Type of assay: biochemical.

A further assay deals with L. major DHFR (Leishmania major, UniProt P07382). Briefly: L. major DHFR. Type of assay: biochemical.
L. major DHFR, sequence (P07382 whole entry): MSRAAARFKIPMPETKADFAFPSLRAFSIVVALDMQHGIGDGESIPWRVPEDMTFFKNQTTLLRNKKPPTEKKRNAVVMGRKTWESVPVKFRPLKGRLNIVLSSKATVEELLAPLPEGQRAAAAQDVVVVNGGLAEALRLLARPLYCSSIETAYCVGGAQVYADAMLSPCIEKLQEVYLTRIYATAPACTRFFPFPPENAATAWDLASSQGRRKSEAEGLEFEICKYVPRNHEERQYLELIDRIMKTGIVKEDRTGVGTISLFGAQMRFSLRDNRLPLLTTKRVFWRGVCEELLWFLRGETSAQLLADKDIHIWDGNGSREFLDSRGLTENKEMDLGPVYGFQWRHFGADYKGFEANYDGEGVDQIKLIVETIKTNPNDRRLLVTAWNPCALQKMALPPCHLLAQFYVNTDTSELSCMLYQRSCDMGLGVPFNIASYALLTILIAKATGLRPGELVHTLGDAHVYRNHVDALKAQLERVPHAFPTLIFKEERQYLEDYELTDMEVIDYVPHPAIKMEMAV

As to `O=C(NC(=S)Nc1cccc(O)c1)c1cccs1` [Compound 4g, N-((3-Hydroxyphenyl)carbamothioyl)thiophene-2-carboxamide], the IC50 against L. major PTR1 was 0.58 ± 0.05 µM; against L. major DHFR it was 8.09 ± 0.01 µM.

Consider `Cc1nc(NC(=S)NCc2ccco2)nc(-c2ccccc2)c1C(=O)N1CCC(C(=O)O)CC1` [Compound 20a, 1-(2-(3-(Furan-2-ylmethyl)thioureido)-4-methyl-6-phenylpyrimidine-5-carbonyl)piperidine-4-carboxylic acid], for which the values for the IC50 against L. major PTR1 and against L. major DHFR were 15.86 ± 0.01 µM and 2.63 ± 0.01 µM, respectively.

In the case of `Cc1nc(NC(=S)NCc2cccs2)nc(-c2ccccc2)c1C(=O)N1CCC(C(=O)O)CC1` [Compound 20b, 1-(4-Methyl-6-phenyl-2-(3-(thiophen-2-ylmethyl)thioureido)pyrimidine-5-carbonyl)piperidine-4-carboxylic acid], the IC50 turned out to be 19.89 ± 0.01 µM at L. major PTR1 and 1.14 ± 0.01 µM against L. major DHFR.
